Reference: PubChem BioAssay AID1963874 (Molecular Pharmacology Branch, DTP, NCI, 2024)

Tested on: 253994-281-T-J1-PDC KRAS-mutant spheroids with HUVEC/MSC, viability
Assay: Anticancer human tumor 253994-281-T-J1-PDC patient-derived colorectal carcinoma cell line growth inhibition [KRAS2]
Details: for IC50: curve of first compound; for viability, T/C: stronger effect = lower value
Method in brief: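 KRAS-mutant tumor cells were grown as spheroids with HUVEC endothelial cells and human MSCs as stroma. Targeted agents were tested alone and with KRAS pathway inhibitors. Doses started at or near clinical Cmax, or 10 microM, descending half-log.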

[1] = second compound 0.1 µM, first compound 0.000316 µM
[2] = second compound 0.1 µM, first compound 0.001 µM
[3] = second compound 0.1 µM, first compound 0.00316 µM
[4] = second compound 0.1 µM, first compound 0.01 µM
[5] = second compound 0.1 µM, first compound 0.0316 µM
[6] = second compound 0.316 µM, first compound 0.000316 µM
[7] = second compound 0.316 µM, first compound 0.001 µM
[8] = second compound 0.316 µM, first compound 0.00316 µM
[9] = second compound 0.316 µM, first compound 0.01 µM
[10] = second compound 0.316 µM, first compound 0.0316 µM
[11] = second compound 1 µM, first compound 0.000316 µM
[12] = second compound 1 µM, first compound 0.001 µM
[13] = second compound 1 µM, first compound 0.00316 µM
[14] = second compound 1 µM, first compound 0.01 µM
[15] = second compound 1 µM, first compound 0.0316 µM
[16] = second compound 3.16 µM, first compound 0.000316 µM
[17] = second compound 3.16 µM, first compound 0.001 µM
[18] = second compound 3.16 µM, first compound 0.00316 µM
[19] = second compound 3.16 µM, first compound 0.01 µM
[20] = second compound 3.16 µM, first compound 0.0316 µM
[21] = second compound 10 µM, first compound 0.000316 µM
[22] = second compound 10 µM, first compound 0.001 µM
[23] = second compound 10 µM, first compound 0.00316 µM
[24] = second compound 10 µM, first compound 0.01 µM
[25] = second compound 10 µM, first compound 0.0316 µM
[26] = second compound 0.1 µM, first compound 0.1 µM
[27] = second compound 0.316 µM, first compound 0.1 µM
[28] = second compound 1 µM, first compound 0.1 µM
[29] = second compound 3.16 µM, first compound 0.1 µM
[30] = second compound 10 µM, first compound 0.1 µM
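Note: spheroids exposed to agents for seven days before readout.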
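Throughout, for viability, T/C: percent of DMSO vehicle control viability.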

Q: What does the source list for `CC(=O)Nc1cccc(-n2c(=O)n(C3CC3)c(=O)c3c(Nc4ccc(I)cc4F)n(C)c(=O)c(C)c32)c1` + CNCc1ccccc1-c1csc(C(C)Nc2nc(C)nc3cc(OC)c(OC)cc23)c1?
A: IC50 (second compound 0.1 µM): 0.649 nM; IC50 (second compound 0.316 µM): 0.415 nM; IC50 (second compound 1 µM): 0.205 nM; IC50 (second compound 3.16 µM): < 0.1 nM; IC50 (second compound 10 µM): < 0.1 nM; viability, T/C (second compound 0.1 µM, first compound 0.0001 µM): 81.3%; viability, T/C [1]: 81.5%; viability, T/C [2]: 31.4%; viability, T/C [3]: 19%; viability, T/C [4]: 10.6%; viability, T/C [5]: 5.26%; viability, T/C (second compound 0.316 µM, first compound 0.0001 µM): 80.2%; viability, T/C [6]: 57.2%; viability, T/C [7]: 28.7%; viability, T/C [8]: 17.2%; viability, T/C [9]: 10.9%; viability, T/C [10]: 4.68%; viability, T/C (second compound 1 µM, first compound 0.0001 µM): 67.4%; viability, T/C [11]: 39.9%; viability, T/C [12]: 16.3%; viability, T/C [13]: 10.7%; viability, T/C [14]: 7.62%; viability, T/C [15]: 3.86%; viability, T/C (second compound 3.16 µM, first compound 0.0001 µM): 5.81%; viability, T/C [16]: 1.42%; viability, T/C [17]: 0.92%; viability, T/C [18]: 0.18%; viability, T/C [19]: 0.16%; viability, T/C [20]: 0.34%; viability, T/C (second compound 10 µM, first compound 0.0001 µM): 0.16%; viability, T/C [21]: 0.15%; viability, T/C [22]: 0.14%; viability, T/C [23]: 0.18%; viability, T/C [24]: 0.12%; viability, T/C [25]: 0.21%

Q: What does the source list for `Cn1ncnc1[C@H]1c2n[nH]c(=O)c3cc(F)cc(c23)N[C@@H]1c1ccc(F)cc1` + C=CC(=O)N1CCN(c2nc(=O)n(-c3c(C)ccnc3C(C)C)c3nc(-c4c(O)cccc4F)c(F)cc23)C(C)C1?
A: IC50 (second compound 0.1 µM): > 100 nM; IC50 (second compound 0.316 µM): > 100 nM; IC50 (second compound 1 µM): > 100 nM; IC50 (second compound 3.16 µM): > 100 nM; IC50 (second compound 10 µM): > 100 nM; viability, T/C [1]: 113%; viability, T/C [2]: 94.8%; viability, T/C [3]: 99.7%; viability, T/C [4]: 102%; viability, T/C [5]: 96.5%; viability, T/C [26]: 92.2%; viability, T/C [6]: 113%; viability, T/C [7]: 102%; viability, T/C [8]: 96.6%; viability, T/C [9]: 101%; viability, T/C [10]: 97.1%; viability, T/C [27]: 92.8%; viability, T/C [11]: 99.9%; viability, T/C [12]: 105%; viability, T/C [13]: 97.9%; viability, T/C [14]: 92.1%; viability, T/C [15]: 114%; viability, T/C [28]: 103%; viability, T/C [16]: 97.7%; viability, T/C [17]: 109%; viability, T/C [18]: 107%; viability, T/C [19]: 89.1%; viability, T/C [20]: 111%; viability, T/C [29]: 99.5%; viability, T/C [21]: 116%; viability, T/C [22]: 106%; viability, T/C [23]: 94.3%; viability, T/C [24]: 96%; viability, T/C [25]: 91.6%; viability, T/C [30]: 96.8%

Q: How did the IC50 (second compound 0.1 µM) turn out when `COc1cc(Nc2ncc3c(n2)-c2ccc(Cl)cc2C(c2c(F)cccc2OC)=NC3)ccc1C(=O)O` + CNCc1ccccc1-c1csc(C(C)Nc2nc(C)nc3cc(OC)c(OC)cc23)c1 was run?
A: Its IC50 is 39.5 nM.

Q: And the IC50 (second compound 0.316 µM)?
A: The IC50 was < 31.6 nM.

Q: And the IC50 (second compound 1 µM)?
A: Its IC50 is < 31.6 nM.

Q: And the IC50 (second compound 3.16 µM)?
A: Its IC50 is < 31.6 nM.

Q: And the IC50 (second compound 10 µM)?
A: The IC50 was < 31.6 nM.

Q: And the viability, T/C [5]?
A: Its viability, T/C is 54.1%.

Q: And the viability, T/C [26]?
A: The viability, T/C was 28.8%.

Q: What about the viability, T/C (second compound 0.1 µM, first compound 0.316 µM) of the same molecule?
A: Its viability, T/C is 25.6%.

Q: And the viability, T/C (second compound 0.1 µM, first compound 1 µM)?
A: Its viability, T/C is 31.4%.

Q: What about the viability, T/C (second compound 0.1 µM, first compound 3.16 µM) of the same molecule?
A: Its viability, T/C is 30.5%.

Q: And the viability, T/C (second compound 0.1 µM, first compound 10 µM)?
A: The viability, T/C was 45%.

Q: And the viability, T/C [10]?
A: The viability, T/C was 49.7%.

Q: And the viability, T/C [27]?
A: The viability, T/C was 31.7%.

Q: And the viability, T/C (second compound 0.316 µM, first compound 0.316 µM)?
A: The viability, T/C was 28.5%.

Q: What about the viability, T/C (second compound 0.316 µM, first compound 1 µM) of the same molecule?
A: Its viability, T/C is 30.3%.

Q: And the viability, T/C (second compound 0.316 µM, first compound 3.16 µM)?
A: Its viability, T/C is 39.5%.

Q: What about the viability, T/C (second compound 0.316 µM, first compound 10 µM) of the same molecule?
A: Its viability, T/C is 33.5%.

Q: And the viability, T/C [15]?
A: The viability, T/C was 39.1%.

Q: What about the viability, T/C [28] of the same molecule?
A: The viability, T/C was 25.6%.

Q: What about the viability, T/C (second compound 1 µM, first compound 0.316 µM) of the same molecule?
A: The viability, T/C was 25.1%.

Q: And the viability, T/C (second compound 1 µM, first compound 1 µM)?
A: Its viability, T/C is 30%.

Q: And the viability, T/C (second compound 1 µM, first compound 3.16 µM)?
A: The viability, T/C was 26.2%.

Q: And the viability, T/C (second compound 1 µM, first compound 10 µM)?
A: The viability, T/C was 30.9%.

Q: What about the viability, T/C [20] of the same molecule?
A: The viability, T/C was 9.35%.

Q: What about the viability, T/C [29] of the same molecule?
A: Its viability, T/C is 1.45%.

Q: What about the viability, T/C (second compound 3.16 µM, first compound 0.316 µM) of the same molecule?
A: The viability, T/C was 1.32%.

Q: What about the viability, T/C (second compound 3.16 µM, first compound 1 µM) of the same molecule?
A: The viability, T/C was 0.29%.

Q: What about the viability, T/C (second compound 3.16 µM, first compound 3.16 µM) of the same molecule?
A: The viability, T/C was 4.67%.

Q: And the viability, T/C (second compound 3.16 µM, first compound 10 µM)?
A: The viability, T/C was 15.5%.

Q: And the viability, T/C [25]?
A: The viability, T/C was 0.14%.

Q: What about the viability, T/C [30] of the same molecule?
A: Its viability, T/C is 0.15%.

Q: What about the viability, T/C (second compound 10 µM, first compound 0.316 µM) of the same molecule?
A: The viability, T/C was 0.15%.

Q: And the viability, T/C (second compound 10 µM, first compound 1 µM)?
A: Its viability, T/C is 0.14%.

Q: And the viability, T/C (second compound 10 µM, first compound 3.16 µM)?
A: The viability, T/C was 0.15%.

Q: And the viability, T/C (second compound 10 µM, first compound 10 µM)?
A: The viability, T/C was 0.18%.
